According to patent publication US9822373B2, “Mutant cells for protein secretion and lignocellulose degradation” (The Regents of the University of California, priority 2011, dated 2017):

Assays:
[1] = system: cellulase genes (cbh-1, gh5-1, gh6-2); assay: Quantitative RT-PCR, cellulase gene expression stated for the genes together; type: cell-based, Neurospora crassa; conditions: for induction of lignocellulolytic genes: wild-type N. crassa (WT) grown on the substance as sole carbon source; for induction of cellulase gene expression: 4 hour induction with 1 mM
Description: Conidia from strains were inoculated at an OD595 equal to 0.05 in 50 ml Vogel's salts (45) with 2% w/v sucrose in a 250 ml Erlenmeyer flask and grown under constant light at 200 rpm for 16 hours. Biomass was then spun at 4200 rpm for 10 minutes and washed in Vogel's salts twice to remove any excess sucrose. […] Cultures were induced for 4 hrs under constant light at 200 rpm. The culture biomass was then harvested by filtration over a Whatman glass microfiber filter (GF/F) on a Buchner funnel and washed with 50 ml Vogel's salts. The biomass was flash frozen in liquid nitrogen and stored at −80° C. Three independent biological duplicates (flasks) were evaluated for each time point.
Total RNA from frozen samples was isolated using Zirconia/Silica beads (0.5 mm diameter; Biospec) and a Mini-Beadbeater-96 (Biospec) with 1 mL TRIzol reagent (Invitrogen) according to the manufacturer's instructions. The total RNA was further purified by digestion with TURBO DNA-free (Ambion) and an RNeasy kit (Qiagen). RNA concentration and integrity was checked by Nanodrop and agarose gel electrophoresis.
Quantitative RT-PCR was performed using the EXPRESS One-Step SYBR GreenER Kit (Invitrogen) and the StepOnePlus Real-Time PCR System (Applied Biosystems). Reactions were performed in triplicate with a total reaction volume of 10 μl including 300 nM each forward and reverse primers and 75 ng template RNA. Data Analysis was performed by the StepOne Software (Applied Biosystems) using the Relative Quantitation/Comparative CT (ΔΔCT) setting. Data was normalized to the endogenous control actin with expression on sucrose as the reference sample.

Neurospora crassa [2] = assay: Secreted protein concentration in shake flask culture supernatant; type: cell-based; conditions: for secreted protein concentration: 48 hours
Description: (§1) Strains were inoculated at an OD595 equal to 0.05 in 100 ml Vogel's salts with 1% (wt/vol) sucrose in a 250 ml Erlenmeyer flask and grown under constant light at 200 rpm for 24 hours. Cultures were then induced with 2% sucrose, 2% cellobiose, 1% sucrose/1% cellobiose, or 1% sucrose/1% Avicel®. Cultures continued to grow under constant light at 200 rpm for 5 days with supernatant collected at 1, 2, 3, 4 and 5 day. The collected supernatant was filtered through a 0.2 μm PES filter to remove biomass before being stored at −20° C. until all samples were collected. To visualize the secreted proteins, 15 μl of unconcentrated supernatant was run on a Criterion 10% Tris-HCL polyacrylamide gel and stained with Thermo Scientific GelCode Blue Stain Reagent.

Neurospora crassa [3] = assay: Avicel hydrolysis assay with shake flask culture supernatants; type: cell-based
Description: Cultures were grown in 1% sucrose for 24 hours followed by the addition of 2% sucrose or 0.2% cellobiose. Supernatant was harvested after 24 (WT, Δ3βG and Δ3βGΔcre) or 72 hours (Δ3βG). The WT Avicel® culture was grown for 5 days on 2% Avicel®, Δ3βG was grown in 1% sucrose for 24 hours followed by 48 hours in 1% Avicel® and Δ3βGΔcre was grown in 1% sucrose for 24 hours followed by 24 hours in 1% Avicel®.
Total Avicelase activity was conducted in 250 mL media bottles incubated at 50° C. on a orbital shaker at 200 rpm. Each bottle contained 1% cellulose (Avicel®) and 50 mM (pH 5.0) sodium acetate in a working volume of 50 mL. Tetracycline (10 μg/mL) was added to prevent microbial contamination. Bioreactor culture broth samples were buffer exchanged using a 10 kDa MWCO centrifugal filter to remove any soluble sugars prior to initiating hydrolysis experiments. After pre-incubating the hydrolysis mixture to 50° C., enzyme was added (1 mL filtered culture broth). Samples were taken every 4 hours for the first 12 hours and then every 12 hours thereafter for a total of 48 hours. Hydrolysis experiments were performed in triplicate.
Sucrose, fructose, glucose and cellobiose were measured on a DIONEX ICS-3000 HPLC (Dionex Corp., Sunnyvale, Calif.) using a CarboPac PA20 Analytical Column (3×150 mm) and a CarboPac PA20 guard column (3×30 mm) at 30° C. Following injection of 25 μl of diluted samples, elution was performed with 100 mM KOH (isocratic) at 0.4 ml/min. Sugars were detected using PAD, Four-Potential Carbohydrate Waveform and Peaks were analyzed using the Chromeleon software package.

[4] = system: Exoglucanase (Cellobiohydrolase I); assay: MuLac (4-Methylumbelliferyl β-D-cellobioside) exoglucanase activity of culture supernatant; type: cell-based, Neurospora crassa
Description: as §1
Exoglucanase (Cellobiohydrolase I) activity was measured using a 4-Methylumbelliferyl β-D-cellobioside (MuLac) assay. This assay mainly measures the activity of CBH-1 and activity is expressed as the change in fluorescence over time resulting in the slope of a best-fit line as an indication of enzyme activity. Prior to performing this assay, any excess sugars in the culture supernatant were removed by passing the supernatant over a 5,000 Dalton concentrator (sartorius stedim Vivaspin 500). Retained proteins were washed twice with 50 mM sodium acetate pH 5 and diluted to 2 μg/μl to assure that the assay remained in the linear range. […] The assay was performed in a Beckman Coulter Paradigm plate reader set at 40° C. with excitation/emission wavelengths of 360/465 nm with readings every 30 seconds for 10 minutes. The slope of the best-fit line represents the MuLac activity for an individual culture supernatant. The MuLac activity is normalized to the initial dilution required to obtain a 2 μg/μl concentration in order to represent the undiluted activity. The activity of recombinant cellobiohydrolase-1 was used as a standard and data is presented as a percentage of the wild type activity on Avicel® after 4 days.

Structure (SMILES) | induction of lignocellulolytic genes [1] | induction of cellulase gene expression ([1]; WT) | induction of cellulase gene expression ([1]; Δ3βG mutant) | other results
OC[C@H]1O[C@@H](O[C@H]2[C@H](O)[C@@H](O)[C@H](O[C@H]3[C@H](O)[C@@H](O)[C@H](O[C@H]4[C@H](O)[C@@H](O)C(O)O[C@@H]4CO)O[C@@H]3CO)O[C@@H]2CO)[C@H](O)[C@@H](O)[C@@H]1O (some centres unmarked) [cellotetraose] | not induced | – | – | –
OC[C@H]1O[C@@](CO)(O[C@H]2O[C@H](CO)[C@@H](O)[C@H](O)[C@H]2O)[C@@H](O)[C@@H]1O [sucrose] | not induced | – | – | secreted protein concentration (Neurospora crassa [2]; WT): 270 µg/mL; secreted protein (Neurospora crassa [2]; triple β-glucosidase deletion, after 2 days): 180 µg/mL; secreted protein concentration (Neurospora crassa [2]; Δcre-1): 481 µg/mL; hydrolysis of crystalline cellulose by culture supernatant (Neurospora crassa [3]; WT cultures grown on or induced with the substance): unable to produce glucose or cellobiose from crystalline cellulose; hydrolysis of crystalline cellulose by culture supernatant (Neurospora crassa [3]; Δ3βG cultures grown on or induced with the substance): unable to produce glucose or cellobiose from crystalline cellulose; hydrolysis of crystalline cellulose by culture supernatant (Neurospora crassa [3]; Δ3βGΔcre cultures grown on or induced with the substance): unable to produce glucose or cellobiose from crystalline cellulose; MuLac activity ([4]; triple β-glucosidase deletion, two days): no activity towards MuLac; activity of secreted proteins towards MuLac ([4]; Δcre-1, on sucrose): do not exhibit any activity towards MuLac
O=C[C@H](O)[C@@H](O)[C@@H](O)[C@H](O)CO [D-(+)-galactose] | – | did not significantly induce | did not significantly induce | –
OC[C@H]1O[C@@H](O[C@H]2[C@H](O)[C@@H](O)[C@H](O[C@H]3[C@H](O)[C@@H](O)C(O)O[C@@H]3CO)O[C@@H]2CO)[C@H](O)[C@@H](O)[C@@H]1O (some centres unmarked) [cellotriose] | not induced | – | – | –
OC[C@H]1O[C@@H](O[C@H]2[C@H](O)[C@@H](O)C(O)O[C@@H]2CO)[C@H](O)[C@@H](O)[C@H]1O (some centres unmarked) [lactose] | – | did not significantly induce | did not significantly induce | –
OC[C@H]1O[C@@H](O[C@H]2C(O)O[C@H](CO)[C@@H](O)[C@@H]2O)[C@H](O)[C@@H](O)[C@@H]1O (some centres unmarked) [sophorose] | – | did not significantly induce | did not significantly induce | –
